{
  "source": "paper PMC11562961",
  "about": "“An activity-based probe for antimicrobial target DXP synthase, a thiamin diphosphate-dependent enzyme” (Frontiers in chemical biology, 2024)",
  "molecular_target": "T1, 1-deoxy-D-xylulose 5-phosphate synthase (DXPS) (Escherichia coli, UniProt P77488)",
  "T1 construct": "gene dxs",
  "T1 sequence (P77488 2-620)": "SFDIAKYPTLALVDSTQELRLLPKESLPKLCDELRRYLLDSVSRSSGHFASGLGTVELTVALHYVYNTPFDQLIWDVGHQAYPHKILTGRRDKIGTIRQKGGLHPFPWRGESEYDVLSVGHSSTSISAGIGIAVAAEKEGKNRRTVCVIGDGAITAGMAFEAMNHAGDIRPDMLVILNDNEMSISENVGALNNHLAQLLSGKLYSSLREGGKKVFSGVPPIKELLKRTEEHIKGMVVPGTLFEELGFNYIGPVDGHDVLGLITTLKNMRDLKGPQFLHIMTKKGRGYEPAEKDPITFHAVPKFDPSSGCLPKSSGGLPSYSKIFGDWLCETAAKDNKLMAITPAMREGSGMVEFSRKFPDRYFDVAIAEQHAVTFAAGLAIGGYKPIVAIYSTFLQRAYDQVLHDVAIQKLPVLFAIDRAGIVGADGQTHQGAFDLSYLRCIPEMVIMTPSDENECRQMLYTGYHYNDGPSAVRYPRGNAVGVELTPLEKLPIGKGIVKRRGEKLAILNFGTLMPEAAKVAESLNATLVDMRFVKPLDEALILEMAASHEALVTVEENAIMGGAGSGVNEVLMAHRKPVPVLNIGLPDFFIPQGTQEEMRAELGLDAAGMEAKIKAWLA",
  "assay": "DXPS-IspC coupled assay (Morrison Ki); also CD detection of the PLThDP adduct and photo-crosslink in-gel fluorescence labeling",
  "type": "biochemical",
  "data": [
    {"smiles": "C#CCCC1(CCOP(=O)(O)C(C)=O)N=N1", "note": "[compound 1, ABP 1]", "values": [
      {"measurement": "Ki", "result": "1.6 ± 0.22", "unit": "µM"}
    ]}
  ]
}
